Laboratory results from ChEMBL document CHEMBL1153391 (J Med Chem, 2009).

What was measured:
[1] = Apparent permeability from basolateral to apical side of human Caco-2 cells
[2] = Apparent permeability from apical to basolateral side of human Caco-2 cells
Procathepsin L = Procathepsin L (Homo sapiens, UniProt P07711); assay: Inhibition of cathepsin L
Plasmodium falciparum = assay: Antiplasmodial activity against Plasmodium falciparum FCBR; type: functional, organism-based
[3] = Inhibition of Plasmodium falciparum falcipain-2
Cathepsin B = Cathepsin B (Homo sapiens, UniProt P07858); assay: Inhibition of cathepsin B
[4] = Apparent permeability across human Caco-2 cells; type: ADME, cell-based
[5] = Cytotoxicity against mouse J774.1 cells; type: cell-based
[6] = Cytotoxicity against human HEK293T cells; type: cell-based; conditions: HEK-293T
[7] = Cytotoxicity against mouse DC

Procathepsin L, sequence (P07711 whole entry): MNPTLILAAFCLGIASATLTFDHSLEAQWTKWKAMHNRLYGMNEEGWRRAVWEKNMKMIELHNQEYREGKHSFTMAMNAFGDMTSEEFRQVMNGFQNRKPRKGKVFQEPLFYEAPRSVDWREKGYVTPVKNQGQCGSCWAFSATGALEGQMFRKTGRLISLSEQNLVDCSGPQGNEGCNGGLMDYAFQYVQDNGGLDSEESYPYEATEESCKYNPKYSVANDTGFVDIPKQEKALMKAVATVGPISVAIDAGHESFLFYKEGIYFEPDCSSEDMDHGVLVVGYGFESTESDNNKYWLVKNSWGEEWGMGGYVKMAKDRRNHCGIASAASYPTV

Structure (SMILES) | Ki (Procathepsin L) [µM] | IC50 (Plasmodium falciparum) [µM] | Ki [3] [nM] | Ki (Cathepsin B) [µM] | other results
CN/C(=N/CCSCc1nc[nH]c1C)NC#N [CIMETIDINE] | – | – | – | – | Papp B→A [1]: 1.5 ×10⁻⁶ cm/s; Papp A→B [2]: 0.56 ×10⁻⁶ cm/s
CN(C)C(=O)/C=C/CNC(=O)CN1C(=O)[C@@H](COC(=O)Nc2ccc(Cl)cc2C(F)(F)F)N=C(c2ccccc2)c2ccccc21 | 1.9 | > 100 | 76 | 0.85 | –
CN(C)C(=O)/C=C/[C@H](CCc1ccccc1)NC(=O)CN1C(=O)[C@@H](COC(=O)Nc2ccc(Cl)cc2C(F)(F)F)N=C(c2ccccc2)c2ccccc21 | 7.4 | – | 76 | 6.4 | –
N#C/C=C/CNC(=O)CN1C(=O)[C@@H](COC(=O)Nc2ccc(Cl)cc2C(F)(F)F)N=C(c2ccccc2)c2ccccc21 | 3.2 | 36.1 | 190 | 9.9 | –
CC(C)C[C@H](NC(=O)[C@H]1O[C@@H]1C(=O)O)C(=O)NCCCCN=C(N)N [E-64] | – | – | 290 | – | –
CC[C@]1(O)C[C@@H]2CN(CCc3c([nH]c4ccccc34)[C@@](C(=O)OC)(c3cc4c(cc3OC)N(C)[C@H]3[C@@](O)(C(=O)OC)[C@H](OC(C)=O)[C@]5(CC)C=CCN6CC[C@]43[C@@H]65)C2)C1 [VINBLASTINE] | – | – | – | – | Papp [4]: 0.51 ×10⁻⁶ cm/s
COC(=O)/C=C/CNC(=O)CN1C(=O)[C@@H](COC(=O)Nc2ccc(Cl)cc2C(F)(F)F)N=C(c2ccccc2)c2ccccc21 | 8.4 | 12 | 17 | 7.3 | Papp [4]: 3.82 ×10⁻⁶ cm/s; IC50 [5]: 31.3 µM; IC50 [6]: 31.2 µM; IC50 [7]: 30.4 µM
CC(=O)/C=C/[C@H](CCc1ccccc1)NC(=O)CN1C(=O)[C@@H](COC(=O)Nc2ccc(Cl)cc2C(F)(F)F)N=C(c2ccccc2)c2ccccc21 | 7.5 | – | – | 8.4 | –
CC(=O)/C=C/CNC(=O)CN1C(=O)[C@@H](COC(=O)Nc2ccc(Cl)cc2C(F)(F)F)N=C(c2ccccc2)c2ccccc21 | 5.9 | 9.3 | – | 6 | –
COC(=O)/C=C/[C@H](CCc1ccccc1)NC(=O)CN1C(=O)[C@@H](COC(=O)Nc2ccc(Cl)cc2C(F)(F)F)N=C(c2ccccc2)c2ccccc21 | 2.7 | – | – | 13.7 | –
